# Experimental data reported in EP4624482A1, “PYRIMIDOPYRIMIDINONE COMPOUND AND PHARMACEUTICAL COMPOSITION COMPRISING SAME” (Axceso Biopharma Co., Ltd., priority 2022, dated 2024).
# Experiments:
# [1] = tested on: tyrosine hydroxylase (TH); experiment: TH expression in rotenone-treated differentiated SH-SY5Y dopaminergic neurons, western blot; assay type: cell-based, human
# Protocol: To analyze the effect on the expression of tyrosine hydroxylase (TH) and α-synuclein as neuron-specific proteins, western blot was performed.
# SH-SY5Y cell line was treated with retinoic acid and 12-O-tetradecanoylphorbol-13-acetate (TPA) to induce differentiation into TH-secreting neurons for 6 days.
# Differentiated dopaminergic neurons were lysed in PRO-PREP (Intronbio), a cell lysis solution containing protease inhibitor cocktail (Gendepot), and electrophoresed in 10% SDS polyacrylamide gels at 20 µg/well. Transfer was performed using PVDF (Merck millipore) as a membrane, and tyrosine hydroxylase antibody, α-synuclein antibody (Cell signaling), and β-actin antibody (Santa Cruz) were used for reaction for more than 2 hours. Protein expression was detected by staining with ECL substrate (Biorad) for development and graphed using the image J program.
# [2] = tested on: dopamine transporter (DAT); experiment: Differentiation of pluripotent stem cells into dopaminergic neurons: DAT; assay type: cell-based; conditions: western blot of 5-week differentiation sample
# Protocol: Pluripotent stem cells were seeded in AggreWell plates (stemcell) at 5,000 cells/microwell and cultured for 5 days in E6 medium (GIBCO) to induce embryonic body (EB) formation. For neural rosette formation, EBs were seeded into 35 mm dishes in groups of 30 and cultured for 10 days in N2bF medium. The 35 mm dishes were used after being coated with 15 µg/ml of poly-L-ornithine (sigma) and 1 µg/ml of fibronectin (sigma). The N2Bf medium composition was DMEM/F12 (GIBCO), N2 supplement (stemcell) 1×, 10% NEAA (GIBCO), 55 µM betaMercaptoethanol (GIBCO), bFGF (peprotech) 20 ng/ml. For the formation of spherical neural masses (SNMs), rosette masses were sliced and cultured in petri dishes with N2bF medium. SNMs were no larger than 500 µM in size and were sliced and cultured for 3 to 4 passages. After subculture of SNM, the clumps were broken into small pieces using a tungsten mesh (Nilaco) for the neural progenitor cell (NPC) culture step, and then attached to a PLO/FN-coated dish and cultured in N2bF medium. To differentiate NPCs into dopaminergic neurons, the medium was replaced with an ITS-B27 medium after 2 days of NPC culture. […]
# The effect of the compound of formula (1a-1) on differentiation into neurons was evaluated by comparing the expression of tyrosine hydroxylase (TH) and dopamine transporter (DAT) depending on the presence or absence of treatment with the compound of formula (1a-1).
# [3] = tested on: C57BL/6 mice; experiment: Acute respiratory distress syndrome induced by CLP: lung histology, lung injury score, wet-to-dry weight ratio; assay type: in vivo; conditions: treated at 6 and 16 hours after CLP, lungs harvested at 18 hours
# Protocol: CLP induces pulmonary edema due to increased inflammation and disruption of the vascular barrier, resulting in acute respiratory distress syndrome (ARDS). To determine the effect on ARDS, the compound of formula (1a-1) was treated at 6 and 16 hours after CLP treatment in the same manner as in Experimental Example 7 above, the lungs of mice were harvested at 18 hours for histological analysis, and the wet-to-dry weight ratio of the lungs was obtained. For comparison, mice without CLP treatment served as a control group.
# For histologic analysis, the harvested lungs were fixed in 10% paraformaldehyde, infiltrated with paraffin, sectioned into 5 µm-thick tissues, and then de-paraffinized with xylene. Sectioned tissues were mounted on slides, stained with H&E, and observed under an optical microscope. In addition, the lung tissue damage was evaluated by histological score to obtain the lung injury score (LIS) for each group.
# To calculate the wet-to-dry weight ratio, lung organs were harvested 18 hours after CLP treatment, and the wet weight was measured immediately after harvesting, and the dry weight was measured after drying in an oven at 60°C for 48 hours to calculate the wet-to-dry weight ratio. The wet-to-dry weight ratio is used as an indicator of organ edema formation.
# [4] = tested on: IL-6; experiment: Serum IL-6 after CLP treatment, ELISA; assay type: in vivo, mouse; conditions: treated at 6 and 16 hours after CLP, serum at 18 hours
# Protocol: (§1) After CLP treatment, the inflammatory cytokines TNF-α and IL-6 were analyzed by ELISA.
# (§2) Specifically, after treating the compound of formula (1a-1) at 6 and 16 hours after CLP treatment, mouse blood was collected at 18 hours and allowed to stand at room temperature for 1 hour, then centrifuged at 3000 rpm for 10 minutes to obtain serum to analyze the amount of TNF-α and IL-6.
# [5] = tested on: TNF-α; experiment: Serum TNF-α after CLP treatment, ELISA; assay type: in vivo, mouse; conditions: treated at 6 and 16 hours after CLP, serum at 18 hours
# Protocol: as §1, §2
smiles,measurement,setting,value
"CCCCCCCCCCCCCC[C@H]1OP(=O)(O)O[C@H]1[C@@H](N)CO.Cl [formula (1a-1), (4S,5R)-4-((S)-1-amino-2-hydroxyethyl)-2-hydroxy-5-tetradecyl-1,3,2-dioxaphosphoran-2-oxide hydrochloride]",effectiveness on TH and α-synuclein expression compared with control drug,[1],more effective than resveratrol
same,expression of TH decreased by rotenone,[1]; differentiated dopaminergic neurons treated with rotenone,restored
same,DAT glycosylation,[2],increased
same,lung injury score,[3],almost restores the lung injury score to normal
same,"lung tissue (optical microscope, H&E)",[3],almost restored to normal
same,wet-to-dry weight ratio of the lung,[3],restores the wet-to-dry weight ratio of the lung to normal
same,amount of inflammatory cytokine IL-6,[4],significantly decreased
same,amount of inflammatory cytokine TNF-α,[5],significantly decreased
